ChEMBL document CHEMBL1201862, “PubChem BioAssay data set” (2004)
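These data come from cells grown in 96-well plates and exposed to compound for 48 hours at five concentrations. GI50 marks 50% less growth.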 The source made the active and inactive calls. No stated cut-off is given here; in the data, active = GI50 up to about 1.1 µM and inactive = higher.

Legend:
Assay in all cases: NCI tumour cell line growth inhibition, 48 h
SR = tested on: SR
Hs-578T = tested on: Hs-578T
U-251 = tested on: U-251
OVCAR-4 = tested on: OVCAR-4
UO-31 = tested on: UO-31
MCF7 = tested on: MCF7
NCI-H226 = tested on: NCI-H226
RPMI-8226 = tested on: RPMI-8226
NCI/ADR-RES = tested on: NCI/ADR-RES
NCI-H522 = tested on: NCI-H522
IGROV-1 = tested on: IGROV-1
786-0 = tested on: 786-0
M14 = tested on: M14
SN12C = tested on: SN12C
KM12 = tested on: KM12
A498 = tested on: A498
SK-MEL-28 = tested on: SK-MEL-28
NCI-H23 = tested on: NCI-H23
SNB-19 = tested on: SNB-19
COLO 205 = tested on: COLO 205

Measured: GI50

O=C(CNc1ccc([N+](=O)[O-])cc1)Nn1c(-c2ccccc2)nc2ccccc2c1=O
inactive: SR 3.1 µM | Hs-578T 2.73 µM | U-251 1.95 µM | OVCAR-4 2.79 µM | UO-31 4.32 µM | MCF7 2.52 µM | NCI-H226 4.69 µM | RPMI-8226 2.47 µM | NCI/ADR-RES 2.33 µM | NCI-H522 1.72 µM | IGROV-1 3.64 µM | 786-0 2.4 µM | M14 3.03 µM | SN12C 2.2 µM | KM12 4.56 µM | A498 7.01 µM | SK-MEL-28 3.25 µM | NCI-H23 2.43 µM | SNB-19 8.75 µM | COLO 205 2.28 µM

CCC/C(Cl)=N\OC(=O)Nc1cccc(C(F)(F)F)c1
inactive: SR 2.26 µM | Hs-578T 29.7 µM | U-251 18.5 µM | OVCAR-4 22.6 µM | UO-31 19.6 µM | MCF7 14 µM | NCI-H226 20.5 µM | RPMI-8226 4.61 µM | NCI/ADR-RES 20.6 µM | NCI-H522 1.96 µM | IGROV-1 17.1 µM | 786-0 16 µM | M14 17.7 µM | SN12C 15.1 µM | KM12 17.6 µM | A498 17.8 µM | SK-MEL-28 19.2 µM | NCI-H23 20.7 µM | SNB-19 > 100 µM | COLO 205 3.05 µM
